Series [1] relates to blackgrass (Alopecurus myosuroides). Put plainly: Test A postemergence. In kind it is in vivo. Particulars: Alopecurus myosuroides, post-emergence, 240 h; for pest or weed control at 125 g/ha: 125 g ai/ha; for pest or weed control at 500 g/ha: 500 g ai/ha. In outline: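 Treatment is preemergence as a directed soil spray after planting, or postemergence at the one- to two-leaf stage, with test chemical in a non-phytotoxic solvent mixture plus surfactant. Plants stay in the greenhouse about 10 d before visual injury scoring on a 0 to 100 scale versus untreated controls.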

In series [2] the test system is ducksalad (Heteranthera limosa). Briefly: Test B flooded paddy test. In kind it is in vivo. Particulars: Heteranthera limosa, 250 g ai/ha, Flood. In outline: (§1)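 Percent control, visually estimated after 13–15 d in the greenhouse on a 0–100 basis, compares treated pots with untreated ones; compound was put into paddy water 3 cm above the soil when plants had two leaves.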

Series [3] concerns sedge, umbrella (small-flower umbrella sedge, Cyperus difformis). Briefly: Test B flooded paddy test. In kind it is in vivo. The conditions noted are these: Cyperus difformis, 250 g ai/ha, Flood. In a few lines: as §1
Series [4] relates to barnyardgrass (Echinochloa crus-galli). Put plainly: Test B flooded paddy test. The conditions noted are these: Echinochloa crus-galli, 250 g ai/ha, Flood. The format is in vivo. In a few lines: as §1
A further series has as its system rice (Oryra sativa). Put plainly: Test B flooded paddy test. The format is in vivo. The conditions noted are these: Oryza sativa, 250 g ai/ha, Flood. In outline: as §1
Setting [5] is: postemergence, visual injury vs untreated controls after approx. 10 d, 0 = no effect, 100 = complete control, read-out: Blackgrass plant response rating (0 to 100 scale).
Setting [6] is: postemergence, 0 to 100 scale, 0 is no effect, 100 is complete control, read-out: Blackgrass plant response rating.
Where [7] appears, read: 0 to 100 scale where 0 is no effect and 100 is complete control, read-out: Ducksalad plant response rating.
Setting [8] is: 0 to 100 scale where 0 is no effect and 100 is complete control, read-out: Sedge, Umbrella plant response rating.
Where [9] appears, read: 0 to 100 scale where 0 is no effect and 100 is complete control, read-out: Barnyardgrass plant response rating.
The mark [10] stands for this setting: 0 to 100 scale where 0 is no effect and 100 is complete control, read-out: Rice plant response rating.
Setting [11] is: Postemergence, visual injury after approx. 10 d, 0 to 100 scale, 0 no effect, 100 complete control, read-out: Plant response rating, Blackgrass.
[12] abbreviates: Postemergence, visual injury, 0 to 100 scale (0 no effect, 100 complete control), approx. 10 d, read-out: Plant response rating, Blackgrass.
The mark [13] stands for this setting: 360 h, visually evaluated after 13 to 15 d, read-out: Plant response rating, Ducksalad (0 to 100 scale where 0 is no effect and 100 is complete control).
The mark [14] stands for this setting: 360 h, visually evaluated after 13 to 15 d, read-out: Plant response rating, Sedge, Umbrella (0 to 100 scale where 0 is no effect and 100 is complete control).
Where [15] appears, read: 360 h, visually evaluated after 13 to 15 d, read-out: Plant response rating, Barnyardgrass (0 to 100 scale where 0 is no effect and 100 is complete control).
Setting [16] is: 360 h, visually evaluated after 13 to 15 d, read-out: Plant response rating, Rice (0 to 100 scale where 0 is no effect and 100 is complete control).
Setting [17] is: Postemergence, visual rating about 10 d after treatment, read-out: Blackgrass plant response rating (0 to 100 scale).
The mark [18] stands for this setting: postemergence, visual injury after approximately 10 d, 0 to 100 scale (0 no effect, 100 complete control), read-out: Plant response rating, Blackgrass.
The mark [19] stands for this setting: scale of 0 to 100 where 0 is no effect and 100 is complete control, read-out: Ducksalad plant response rating.
Where [20] appears, read: scale of 0 to 100 where 0 is no effect and 100 is complete control, read-out: Sedge, Umbrella plant response rating.
The mark [21] stands for this setting: scale of 0 to 100 where 0 is no effect and 100 is complete control, read-out: Barnyardgrass plant response rating.
Setting [22] is: scale of 0 to 100 where 0 is no effect and 100 is complete control, read-out: Rice plant response rating.

This passage reports pest or weed control and melting point results from patent publication US12077503B2, “Substituted cyclic amides and their use as herbicides” (FMC CORPORATION, priority 2015, dated 2024).

Like-named read-outs stand apart in the source and are kept apart here.

Turning to `CN1C[C@H](c2ccc(C(F)(F)F)cc2)[C@@H](C(=O)Nc2cccc(Cl)c2F)C1=O` [Compound 1238], the melting point – broadly, the temperature, or range, at which the solid turns liquid – lay within 138 to 141 °C. The pest or weed control at 125 g/ha in series [1] (setting [5]) came out at 30%. Also, the pest or weed control at 500 g/ha in series [1] (setting [6]) worked out at 50%. Besides, the pest or weed control at 250 g/ha in series [2] (setting [7]) came to 0%. For the same compound, the pest or weed control at 250 g/ha in series [3] (setting [8]) was determined as 0%. Further, in series [4] (setting [9]), the pest or weed control at 250 g/ha is 0%. The pest or weed control at 250 g/ha in the series with rice (Oryra sativa) (setting [10]) came out at 0%.

Take `O=C1NC[C@H](c2nccc(C(F)(F)F)n2)[C@H]1C(=O)Nc1cccc(F)c1F` [Compound 1392]: the melting point lay in the range of 154 to 158 °C. For the same compound, the pest or weed control at 125 g/ha in series [1] (setting [11]) was 0%. Moreover, the pest or weed control at 500 g/ha in series [1] (setting [12]) worked out at 0%. Besides, the pest or weed control at 250 g/ha in series [2] (setting [13]) was 30%. Also, in series [3] (setting [14]), the pest or weed control at 250 g/ha amounted to 0%. The pest or weed control at 250 g/ha in series [4] (setting [15]) was 0%. The pest or weed control at 250 g/ha with rice (Oryra sativa) (setting [16]) was 0%.

Regarding `CS(=O)(=O)c1ccccc1NC(=O)[C@H]1C(=O)NC[C@@H]1c1ccc2c(c1)CCO2` [Compound 1320], the pest or weed control at 125 g/ha in series [1] (setting [17]) was found to be 0%. Further, the pest or weed control at 500 g/ha in series [1] (setting [12]) amounted to 0%. Moreover, the pest or weed control at 250 g/ha in series [2] (setting [7]) came to 50%; in series [3] (setting [14]), 0%; in series [4] (setting [9]), 0%; in the series on rice (Oryra sativa) (setting [10]), 0%.

In the case of `CN1C[C@H](c2cc(F)cc(C(F)(F)F)c2)[C@@H](C(=O)Nc2cccc(F)c2F)C1=O` [Compound 1214], in series [1] (setting [5]), the pest or weed control at 125 g/ha was 80%. Further, in series [1] (setting [6]), the pest or weed control at 500 g/ha came to 80%. The pest or weed control at 250 g/ha was found to be 100% in series [2] (setting [7]), 60% in series [3] (setting [8]), 70% in series [4] (setting [9]) and 15% in the series with rice (Oryra sativa) (setting [10]).

For `CSc1ccccc1NC(=O)[C@H]1C(=O)N(C)C[C@@H]1c1ccc2c(c1)OC(F)(F)O2` [Compound 1251], in series [1] (setting [5]), the pest or weed control at 125 g/ha came to 0%. Besides, the pest or weed control at 500 g/ha in series [1] (setting [12]) was determined as 40%. Further, the pest or weed control at 250 g/ha in series [2] (setting [7]) stood at 90%; in series [3] (setting [8]) it was 0%; in series [4] (setting [9]), 0%; in the series with rice (Oryra sativa) (setting [10]), 0%.

As to `Cc1cc([C@H]2CNC(=O)[C@@H]2C(=O)Nc2ccc(F)cc2F)ccc1Br` [Compound 725], the pest or weed control at 125 g/ha in series [1] (setting [18]) was found to be 0%. Also, the pest or weed control at 250 g/ha in series [2] (setting [19]) was 100%; in series [3] (setting [20]) it was 0%; in series [4] (setting [21]) it was 0%; in the series with rice (Oryra sativa) (setting [22]), 0%.

Regarding `CN1CC[C@@H](c2cccc(C(F)(F)F)c2)[C@H](C(=O)Nc2ccccc2F)C1=O` [Compound 794], in series [1] (setting [18]), the pest or weed control at 125 g/ha came out at 0%. Also, the pest or weed control at 31 g/ha in series [1] (Postemergence, 31 g ai/ha, visual injury after approx. 10 d, 0 to 100 scale, 0 no effect, 100 complete control, read-out: Plant response rating, Blackgrass) came out at 0%. The pest or weed control at 250 g/ha in series [2] (setting [19]) stood at 30%; in series [3] (setting [20]) it was 0%; in series [4] (setting [21]) it was 40%; in the series on rice (Oryra sativa) (setting [22]), 20%.

Consider `Cc1c(F)ccc([C@H]2CNC(=O)[C@@H]2C(=O)Nc2ccc(F)cc2F)c1F` [Compound 1328], for which the pest or weed control at 125 g/ha in series [1] (setting [17]) was 0%. The pest or weed control at 500 g/ha in series [1] (setting [12]) was found to be 0%. Also, the pest or weed control at 250 g/ha is 50% in series [2] (setting [13]), 0% in series [3] (setting [14]), 0% in series [4] (setting [15]) and 0% in the series on rice (Oryra sativa) (setting [16]).

Regarding `CN1C[C@H](c2cccc(C(C)(F)F)c2)[C@@H](C(=O)Nc2ccccc2S(C)(=O)=O)C1=O` [Compound 1318], in series [1] (setting [17]), the pest or weed control at 125 g/ha was 70%. Further, the pest or weed control at 500 g/ha in series [1] (setting [12]) amounted to 70%. Besides, the pest or weed control at 250 g/ha in series [2] (setting [7]) is 85%; in series [3] (setting [14]), 0%; in series [4] (setting [9]), 65%; in the series on rice (Oryra sativa) (setting [10]) it was 0%.

Consider `Cc1cc([C@H]2CNC(=O)[C@@H]2C(=O)Nc2cccc(F)c2F)ccc1Cl` [Compound 790], for which, in series [1] (setting [18]), the pest or weed control at 125 g/ha worked out at 40%. The pest or weed control at 250 g/ha in series [2] (setting [19]) was determined as 100%; in series [3] (setting [20]) it was 0%; in series [4] (setting [21]), 40%; in the series on rice (Oryra sativa) (setting [22]) it was 0%.

As to `CC(C)c1cccc([C@H]2CN(C)C(=O)[C@@H]2C(=O)Nc2cccc(F)c2F)c1` [Compound 1388], the pest or weed control at 125 g/ha in series [1] (setting [11]) turned out to be 70%. Also, in series [1] (setting [12]), the pest or weed control at 500 g/ha turned out to be 90%. Also, the pest or weed control at 250 g/ha in series [2] (setting [13]) turned out to be 80%; in series [3] (setting [14]), 0%; in series [4] (setting [15]), 65%; in the series on rice (Oryra sativa) (setting [16]) it was 0%.

As to `CN1C[C@H](c2cccc(C(F)(F)F)c2)[C@@H](C(=O)Nc2ccc(F)c(F)c2F)C1=O` [Compound 1389], the pest or weed control at 125 g/ha in series [1] (setting [11]) was found to be 50%. Further, the pest or weed control at 500 g/ha in series [1] (setting [12]) was determined as 50%. The pest or weed control at 250 g/ha in series [2] (setting [13]) amounted to 100%; in series [3] (setting [14]), 0%; in series [4] (setting [15]), 60%; in the series on rice (Oryra sativa) (setting [16]), 15%.

Take `Cc1ccc([C@H]2CNC(=O)[C@@H]2C(=O)Nc2c(F)cccc2F)cc1C` [Compound 1247]: in series [1] (setting [5]), the pest or weed control at 125 g/ha turned out to be 0%. The pest or weed control at 500 g/ha in series [1] (setting [12]) worked out at 0%. The pest or weed control at 250 g/ha came to 55% in series [2] (setting [7]), 0% in series [3] (setting [8]), 20% in series [4] (setting [9]) and 0% with rice (Oryra sativa) (setting [10]).

As for `Cc1c(F)cccc1NC(=O)[C@H]1C(=O)NC[C@@H]1c1cccc2c1OC(F)(F)O2` [Compound 1305], in series [1] (setting [17]), the pest or weed control at 125 g/ha came to 0%. Further, the pest or weed control at 500 g/ha in series [1] (setting [12]) is 0%. For the same compound, the pest or weed control at 250 g/ha in series [2] (setting [7]) was found to be 70%; in series [3] (setting [8]), 0%; in series [4] (setting [9]), 20%; with rice (Oryra sativa) (setting [10]) it was 0%.

As to `CS(=O)(=O)c1ccccc1NC(=O)[C@H]1C(=O)NC[C@@H]1c1cccc2c1OC(F)(F)O2` [Compound 753], the pest or weed control at 125 g/ha in series [1] (setting [18]) was 0%. Further, the pest or weed control at 250 g/ha worked out at 60% in series [2] (setting [19]), 0% in series [3] (setting [20]), 0% in series [4] (setting [21]) and 0% with rice (Oryra sativa) (setting [22]).

As to `Cc1cc([C@H]2CN(C)C(=O)[C@@H]2C(=O)Nc2ccc(F)c(F)c2F)ccc1F` [Compound 719], the pest or weed control at 125 g/ha in series [1] (setting [18]) stood at 60%. Moreover, the pest or weed control at 250 g/ha in series [2] (setting [19]) turned out to be 100%; in series [3] (setting [20]) it was 0%; in series [4] (setting [21]) it was 85%; in the series on rice (Oryra sativa) (setting [22]), 0%.

Take `CSc1ccccc1NC(=O)[C@H]1C(=O)N(C)C[C@@H]1c1cccc(C(F)(F)F)c1` [Compound 1249]: the pest or weed control at 125 g/ha in series [1] (setting [5]) came out at 40%. The pest or weed control at 500 g/ha in series [1] (setting [12]) worked out at 50%. The pest or weed control at 250 g/ha turned out to be 100% in series [2] (setting [7]), 0% in series [3] (setting [8]), 60% in series [4] (setting [9]) and 0% in the series on rice (Oryra sativa) (setting [10]).
